Measured values reported in US20240269212A1, “HEMP EXTRACT FOR TREATMENT OF PAIN, CANCER AND EPILEPSY IN ANIMALS” (Portland Technology Holdings LLC., priority 2021, published 2024).

Key:
[1] = Manual resting heart rate monitoring; assay type: in vivo, dog (beagle); details: initial dosing and two-week period of treatment
Source text: Six intact male beagles all 2 years of age weighing between 18.6 and 22.2 kilograms body weight were housed at the Baker Institute for Animal Health and all procedures were approved by the Cornell University Institutional Animal Care and Use Committee (Protocol 2019-0001). All dogs underwent the fasted treatment trial for a two-week period and were then allowed 2 weeks of washout before beginning the fed stage of the trial which included ¼ of a 13 ounce can of a wet food (PURINA® Pro Plan Savory Chicken and Rice Formula, Nestle Purina, St. Louis, MO) at the time of dosing. Twenty-four hour pharmacokinetic analysis of serum cannabinoid levels was performed on day 1 after a single dose in the fed or fasted state. Then, twice daily dosing of treatment oil at both 7 am and 7 pm was performed on the following days for two weeks, and serum cannabinoids were measured. Prior to the study all dogs had blood drawn for a complete blood count and serum chemistry and again at the end of each phase of the 2 week study. […] Due to the potential for CBG/CBGA to affect heart rate, dogs were assessed manually for resting heart rates for 30 seconds and extrapolated to relative beats per minute after initial dosing at time points 0, 1, 2, 4, 12, 24 and 48 hours and again at day 7 and day 14 after morning dosing for both the fed and fasted arms of the study. […]

[2] = Physical and behavioral examinations for adverse events; assay type: in vivo; details: healthy dogs, oral 2 mg/kg twice daily for 2 weeks
Source text: All dogs underwent the fasted treatment trial for a two-week period and were then allowed 2 weeks of washout before beginning the fed stage of the trial which included ¼ of a 13 ounce can of a wet food (PURINA® Pro Plan Savory Chicken and Rice Formula, Nestle Purina, St. Louis, MO) at the time of dosing. […] Prior to the study all dogs had blood drawn for a complete blood count and serum chemistry and again at the end of each phase of the 2 week study. Complete blood counts (white blood cells [WBC], hematocrit, hemoglobin, red blood cells [RBC], neutrophils, lymphocytes, platelets, monocytes, eosinophils, basophils) and serum biochemistry analyses (sodium, potassium, chloride, magnesium, calcium, phosphorus, albumin, total protein, globulin, urea nitrogen, creatinine, alkaline phosphatase [ALP], alanine aminotransferase [ALT], aspartate amino transferase [AST], cholesterol, total bilirubin, glucose and gamma glutamyl transferase [GGT]) were performed at the Cornell University Diagnostic Laboratory. […] Due to the potential for CBG/CBGA to affect heart rate, dogs were assessed manually for resting heart rates for 30 seconds and extrapolated to relative beats per minute after initial dosing at time points 0, 1, 2, 4, 12, 24 and 48 hours and again at day 7 and day 14 after morning dosing for both the fed and fasted arms of the study.

[3] = Serum cannabinoid concentrations after 1 and 2 weeks of twice daily dosing (relative steady state); assay type: in vivo, dog (beagle); details: for concentration at 6 h: male, beagle, dog, 2 mg/kg, 2 mg/kg twice daily, six hours after the morning dose
Source text: Six intact male beagles all 2 years of age weighing between 18.6 and 22.2 kilograms body weight were housed at the Baker Institute for Animal Health and all procedures were approved by the Cornell University Institutional Animal Care and Use Committee (Protocol 2019-0001). All dogs underwent the fasted treatment trial for a two-week period and were then allowed 2 weeks of washout before beginning the fed stage of the trial which included ¼ of a 13 ounce can of a wet food (PURINA® Pro Plan Savory Chicken and Rice Formula, Nestle Purina, St. Louis, MO) at the time of dosing. Twenty-four hour pharmacokinetic analysis of serum cannabinoid levels was performed on day 1 after a single dose in the fed or fasted state. Then, twice daily dosing of treatment oil at both 7 am and 7 pm was performed on the following days for two weeks, and serum cannabinoids were measured. Prior to the study all dogs had blood drawn for a complete blood count and serum chemistry and again at the end of each phase of the 2 week study. Complete blood counts (white blood cells [WBC], hematocrit, hemoglobin, red blood cells [RBC], neutrophils, lymphocytes, platelets, monocytes, eosinophils, basophils) and serum biochemistry analyses (sodium, potassium, chloride, magnesium, calcium, phosphorus, albumin, total protein, globulin, urea nitrogen, creatinine, alkaline phosphatase [ALP], alanine aminotransferase [ALT], aspartate amino transferase [AST], cholesterol, total bilirubin, glucose and gamma glutamyl transferase [GGT]) were performed at the Cornell University Diagnostic Laboratory. For the fasted and fed portions of the 24 hour pharmacokinetic analysis study the dogs were administered 2 mg/kg body weight of an equal mix of 30 mg/mL CBG and 30 mg/mL CBGA from a hemp extract in a sesame oil base which was tested again at the end of the study showing virtually the same analytical profile. Two milliliters of blood was drawn via jugular venipuncture for all 6 dogs prior to the initial dose (0 hours) and then again at 0.5, 1, 2, 4, 8, 12 and 24 hours. Prior to enrollment all dogs involved in the study were deemed healthy based on physical examination. Behavioral observations were performed 2 hours after morning dosing for each phase of the trial. Behavioral observations were performed on day 1, day 3, day 7, and day 14. Physical and behavioral examinations were performed to assess for adverse events including diarrhea, vomiting, lethargy, somnolence, ataxia, or abnormal behavior within the colony. Due to the potential for CBG/CBGA to affect heart rate, dogs were assessed manually for resting heart rates for 30 seconds and extrapolated to relative beats per minute after initial dosing at time points 0, 1, 2, 4, 12, 24 and 48 hours and again at day 7 and day 14 after morning dosing for both the fed and fasted arms of the study. Serum was also obtained on day 7 and day 14 six hours after the morning dose for further serum cannabinoid measurement to establish relative steady state serum concentrations.
Analysis was performed using an exploratory (fit-for-purpose) method for fast measurement of thirteen cannabinoids and their metabolites at the Toxicology Research Laboratory, University of Illinois at Chicago. The reference standards for CBD and CBDA were obtained from Restek Corporation (Bellefonte, PA); all other reference and internal standards including CBG and CBGA were obtained from Cerilliant Corporation (Round Rock, TX). The concentrations of cannabinoids (CBD, CBDA, 7-COOH Cannabidiol (7-COOH-CBD), THC, THCA, cannabinol (CBN), cannabichromene (CBC), CBG, and CBGA) and their metabolites (7-OH-CBD, 7-COOH-CBD, COOH-THC, and COOH-THC-Glu) in dog sera were determined using high performance liquid chromatography with tandem mass spectrometry (LC-MS/MS) (Nexera X2 and LCMS 8050, Shimadzu Corp., Kyoto, Japan). […]

SMILES | Bradycardia upon oral absorption [1] | Short-term safety (serum biochemistry, blood count, physical exam and heart rate monitoring) [2] | concentration at 6 h ([3]; in vivo, week one, fasted) [ng/mL] | concentration at 6 h ([3]; in vivo, week one, fed) [ng/mL] | concentration at 6 h ([3]; in vivo, week two, fasted) [ng/mL] | concentration at 6 h ([3]; in vivo, week two, fed) [ng/mL] | absorption and retention, fold higher than what can be achieved with CBG ([3]; oral dosing over a 2-week period) [fold] | concentration at 6 h ([3]; serum, oral, week one, fasted) [ng/mL] | concentration at 6 h ([3]; serum, oral, week one, fed) [ng/mL] | concentration at 6 h ([3]; serum, oral, week two, fasted) [ng/mL] | concentration at 6 h ([3]; serum, oral, week two, fed) [ng/mL]
CCCCCc1cc(O)c(C/C=C(\C)CCC=C(C)C)c(O)c1C(=O)O [CBGA, cannabigerolic acid] | does not induce bradycardia | appear to be safe | 437 ± 414 | 564 ± 574 | 260 ± 300 | 223 ± 197 | ~10 |  |  |  | 
CCCCCc1cc(O)c(C/C=C(\C)CCC=C(C)C)c(O)c1 [CBG, cannabigerol] |  | appear to be safe |  |  |  |  |  | 5 ± 3.5 | 12.7 ± 12.3 | 6.1 ± 6 | 9.6 ± 8.4
